This passage reports IC50 results from ChEMBL document CHEMBL5728326, “Aminopyridine derivatives and their use as selective ALK-2 inhibitors” (2021).

The target in experiment [1] is Bone morphogenetic protein receptor type-1B (Homo sapiens, UniProt O00238).
For experiment [2], the target named is Activin receptor type-1-like (Homo sapiens, UniProt P37023).
Activin receptor type-1-like, sequence (P37023 22-503 limits assumed, change not shown): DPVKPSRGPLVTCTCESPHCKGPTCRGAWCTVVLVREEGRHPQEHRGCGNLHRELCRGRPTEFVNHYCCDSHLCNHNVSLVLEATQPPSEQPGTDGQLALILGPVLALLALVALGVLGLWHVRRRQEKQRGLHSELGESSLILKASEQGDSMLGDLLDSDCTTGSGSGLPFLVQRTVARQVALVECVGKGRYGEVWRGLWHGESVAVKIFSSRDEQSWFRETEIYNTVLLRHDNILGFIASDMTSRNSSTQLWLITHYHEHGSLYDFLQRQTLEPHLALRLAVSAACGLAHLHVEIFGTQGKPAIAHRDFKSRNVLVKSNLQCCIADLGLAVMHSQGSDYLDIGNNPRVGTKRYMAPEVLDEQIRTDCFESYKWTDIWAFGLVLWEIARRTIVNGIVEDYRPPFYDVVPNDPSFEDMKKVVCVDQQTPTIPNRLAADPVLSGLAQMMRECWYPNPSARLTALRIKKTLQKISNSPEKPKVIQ

Bone morphogenetic protein receptor type-1B, sequence (O00238 14-502 limits assumed, change not shown): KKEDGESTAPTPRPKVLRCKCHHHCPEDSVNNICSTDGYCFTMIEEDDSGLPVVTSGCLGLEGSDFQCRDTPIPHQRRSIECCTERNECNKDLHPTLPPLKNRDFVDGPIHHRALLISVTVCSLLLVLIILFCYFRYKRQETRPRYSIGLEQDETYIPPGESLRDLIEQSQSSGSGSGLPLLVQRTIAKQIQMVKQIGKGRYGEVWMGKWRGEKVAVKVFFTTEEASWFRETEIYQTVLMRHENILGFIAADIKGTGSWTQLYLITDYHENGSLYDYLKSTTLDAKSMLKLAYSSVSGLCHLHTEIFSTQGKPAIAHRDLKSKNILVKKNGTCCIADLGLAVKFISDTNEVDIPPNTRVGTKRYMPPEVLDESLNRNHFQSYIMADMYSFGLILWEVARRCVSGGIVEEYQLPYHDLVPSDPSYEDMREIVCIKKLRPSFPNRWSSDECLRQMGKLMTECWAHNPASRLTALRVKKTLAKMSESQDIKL

As a reminder, the IC50 is the point on the concentration scale where inhibition reaches its midpoint. With `NC(=O)c1ccc(-c2cnc(N)c(C(=O)N[C@H]3CC[C@@H](O)CC3)c2)cc1`, the IC50 in experiment [1] came to 10 µM; in experiment [2], 0.89 µM.
